According to patent US9567334B2, “Quinolone derivatives as fibroblast growth factor receptor inhibitors” (Principia Biopharma, Inc., priority 2014, dated 2017):

Test system: SNU-16 cells
Experiment: Inhibition of FGFR2-dependent cell growth (Cell-titer Glo, 72 hrs)
Settings: Homo sapiens, SNU-16, 72 h, read-out: SNU16 IC50 values

C=CC(=O)N1CCN(CCCn2c(=O)c(-c3c(Cl)c(OC)cc(OC)c3Cl)cc3cnc(NC4COC4)nc32)CC1 [Example 66, 8-(3-(4-acryloylpiperazin-1-yl)propyl)-6-(2,6-dichloro-3,5-dimethoxyphenyl)-2-(oxetan-3-ylamino)pyrido[2,3-d]pyrimidin-7(8H)-one] was tested, and the IC50 was > 5 µM.
